Data reported in publication PMC7527510, “Identification of the dog orthologue of human MAS-related G protein coupled receptor X2 (MRGPRX2) essential for drug-induced pseudo-allergic reactions” (Scientific Reports, 2020).
Where “and” joins values, the source holds several entries; their conditions need not be identical. Equal entries are not always repeated. Entries after “also recorded” stand apart in the source; their conditions may differ. Where two headings read alike, the source gives them in different places.

What was measured:
human MRGPRX2 = molecular target: T1, human MRGPRX2 (Homo sapiens, UniProt Q96LB1); assay: Intracellular Ca2+ mobilisation assay in HEK293 cells transiently transfected with human MRGPRX2; type: cell-based; details: for Activation of human MRGPRX2 (increase in intracellular Ca2+): HEK293 cells transfected with human MRGPRX2, fluoroquinolones up to 1000 μg/mL; for EC50: human MRGPRX2-expressing HEK293 cells, mean ± SD of three independent experiments, read-out: EC50 on changes in intracellular Ca2+ levels, Human MRGPRX2 (converted)
T1 construct: expressed in transfected cells; host or cells: HEK293 (JCRB Cell Bank), transient, pcDNA3.1(+) vector
T1 sequence (Q96LB1 1-330): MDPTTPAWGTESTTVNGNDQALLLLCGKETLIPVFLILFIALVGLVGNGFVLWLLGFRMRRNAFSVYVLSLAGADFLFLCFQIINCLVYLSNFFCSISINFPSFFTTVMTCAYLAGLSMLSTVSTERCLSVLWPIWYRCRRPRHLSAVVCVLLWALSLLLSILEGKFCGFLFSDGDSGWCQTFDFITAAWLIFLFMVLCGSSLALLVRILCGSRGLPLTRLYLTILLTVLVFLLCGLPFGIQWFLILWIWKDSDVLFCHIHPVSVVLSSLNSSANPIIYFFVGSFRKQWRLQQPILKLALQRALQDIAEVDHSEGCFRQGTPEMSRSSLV
Description: (§1) HEK293 cells obtained from the JCRB Cell Bank (Osaka, Japan) were transfected transiently with dog MRGPRD, MRGPRF, MRGPRG, or MRGPRX2 or human MRGPRX2. Lipofectamine 2000 Reagent (Thermo Fisher Scientific Inc.) and pcDNA3.1(+) vector containing each gene were diluted and mixed using Opti-MEM I Reduced Serum Medium (Thermo Fisher Scientific Inc.) to prepare lipid-DNA complexes (final concentrations: lipofectamine 2.5 μL/mL and DNA 2,500 ng/mL). HEK293 cells were detached using TrypLE™ Express (Thermo Fisher Scientific Inc.) and prepared to 7 × 10^5 cells/mL with the lipid-DNA complex. Thereafter, 25 μL cells (1.75 × 10^4 cells/well) were seeded per well in 384-well flat-bottomed plates (Corning Incorporated, Corning, NY, USA) and incubated overnight at 37 °C under 5% CO2 conditions. Cells treated with plasmid-free lipid solution were used as negative control (non-transfected cells).
Test articles were dissolved in HBSS (pH 7.4, Thermo Fisher Scientific Inc., Waltham, MA, USA) supplemented with 20 mM HEPES (Sigma-Aldrich Co. LLC.) and 0.05 vol% bovine serum albumin (BSA, Sigma-Aldrich Co. LLC.). […] Intracellular Ca^2+ levels were analysed using Calcium Kit II-iCellux (Dojindo Molecular Technologies, Inc., Kumamoto, Japan), according to the manufacturer's instructions. HEK293 cells (1.75 × 10^4 cells/well) were loaded with 1.25 mM probenecid and calcium probe for 45 min at 25 °C. Changes in fluorescence intensities before and after addition of the test articles were measured over time using FLIPR Tetra (Molecular Devices, LLC., Sunnyvale, CA, USA) with excitation at 470–495 nm and emission at 515–575 nm. The test articles were added at 10 s after beginning the measurements. Samples were measured in duplicate or quadruplicate. The data were analysed using ScreenWorks (Molecular Devices, LLC. Version 3.2.0.14) to determine the difference between maximal and minimal fluorescence intensity (max–min).
(§2) Data represent the mean ± SD of three animals for distribution study or three independent assays for Ca^2+ mobilisation. EC50 of each test article used in the Ca^2+ mobilisation assay was calculated using the sigmoid Emax model. These analyses were performed by using the SAS System Release 8.2 software (SAS Institute Inc., Cary, NC, USA).

dog MRGPRX2 = dog MRGPRX2 (Canis lupus familiaris, UniProt A0A4Y5P885); assay: Intracellular Ca2+ mobilisation assay in HEK293 cells transiently transfected with dog MRGPRX2; type: cell-based; details: for Activation of dog MRGPRX2 (increase in intracellular Ca2+): HEK293 cells transfected with dog MRGPRX2, fluoroquinolones up to 1000 μg/mL; for EC50: mean ± SD of three independent experiments; for Difference in EC50 values between dog MRGPRX2 and human MRGPRX2: EC50 lower in dog MRGPRX2-expressing cells than in human MRGPRX2-expressing cells
Chain of dog MRGPRX2 (A0A4Y5P885 entry or part of it): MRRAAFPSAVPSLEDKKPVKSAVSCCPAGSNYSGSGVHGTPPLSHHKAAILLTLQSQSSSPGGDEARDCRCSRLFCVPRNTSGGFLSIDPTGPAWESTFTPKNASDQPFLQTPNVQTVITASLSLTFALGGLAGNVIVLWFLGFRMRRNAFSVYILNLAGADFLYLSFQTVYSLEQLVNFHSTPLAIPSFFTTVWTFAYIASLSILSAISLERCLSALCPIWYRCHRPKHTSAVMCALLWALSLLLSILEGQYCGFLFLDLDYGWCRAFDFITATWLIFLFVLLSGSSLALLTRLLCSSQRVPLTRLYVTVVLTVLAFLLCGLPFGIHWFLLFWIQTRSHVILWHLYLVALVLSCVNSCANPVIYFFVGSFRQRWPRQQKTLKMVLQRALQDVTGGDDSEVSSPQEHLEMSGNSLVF
Description: as §1
Test articles were dissolved in HBSS (pH 7.4, Thermo Fisher Scientific Inc., Waltham, MA, USA) supplemented with 20 mM HEPES (Sigma-Aldrich Co. LLC.) and 0.05 vol% bovine serum albumin (BSA, Sigma-Aldrich Co. LLC.). The highest concentration of the fluoroquinolones was set at 1000 μg/mL based on previous reports at which the test substances induced marked intracellular Ca^2+ mobilisation in human MRGPRX2-expressing HEK293 cells[11] or caused histamine release in rat or human mast cells[16],[25],[36]. Intracellular Ca^2+ levels were analysed using Calcium Kit II-iCellux (Dojindo Molecular Technologies, Inc., Kumamoto, Japan), according to the manufacturer's instructions. HEK293 cells (1.75 × 10^4 cells/well) were loaded with 1.25 mM probenecid and calcium probe for 45 min at 25 °C. Changes in fluorescence intensities before and after addition of the test articles were measured over time using FLIPR Tetra (Molecular Devices, LLC., Sunnyvale, CA, USA) with excitation at 470–495 nm and emission at 515–575 nm. The test articles were added at 10 s after beginning the measurements. Samples were measured in duplicate or quadruplicate. The data were analysed using ScreenWorks (Molecular Devices, LLC. Version 3.2.0.14) to determine the difference between maximal and minimal fluorescence intensity (max–min).
as §2

[1] = system: non-transfected HEK293 cells; assay: Intracellular Ca2+ levels in non-transfected HEK293 cells (negative control cells); type: cell-based, human; details: 1,000 μg/mL; data excluded from the analysis
Description: HEK293 cells obtained from the JCRB Cell Bank (Osaka, Japan) were transfected transiently with dog MRGPRD, MRGPRF, MRGPRG, or MRGPRX2 or human MRGPRX2. Lipofectamine 2000 Reagent (Thermo Fisher Scientific Inc.) and pcDNA3.1(+) vector containing each gene were diluted and mixed using Opti-MEM I Reduced Serum Medium (Thermo Fisher Scientific Inc.) to prepare lipid-DNA complexes (final concentrations: lipofectamine 2.5 μL/mL and DNA 2,500 ng/mL). HEK293 cells were detached using TrypLE™ Express (Thermo Fisher Scientific Inc.) and prepared to 7 × 10^5 cells/mL with the lipid-DNA complex. […]
Test articles were dissolved in HBSS (pH 7.4, Thermo Fisher Scientific Inc., Waltham, MA, USA) supplemented with 20 mM HEPES (Sigma-Aldrich Co. LLC.) and 0.05 vol% bovine serum albumin (BSA, Sigma-Aldrich Co. LLC.). […] Intracellular Ca^2+ levels were analysed using Calcium Kit II-iCellux (Dojindo Molecular Technologies, Inc., Kumamoto, Japan), according to the manufacturer's instructions. […] Changes in fluorescence intensities before and after addition of the test articles were measured over time using FLIPR Tetra (Molecular Devices, LLC., Sunnyvale, CA, USA) with excitation at 470–495 nm and emission at 515–575 nm. […] Samples were measured in duplicate or quadruplicate. […]

mouse Mrgprb2 = system: mouse Mrgprb2; design: method as in PMID 25517090; details: cited from earlier work
[2] = system: dispersed canine skin mast cells; design: method as in PMID 10864147; details: cited from earlier work
[3] = design: method as in PMID 9635500; details: cited from earlier work
[4] = EC50 on changes in intracellular Ca2+ levels, Dog MRGPRX2, dog MRGPRX2-expressing HEK293 cells

| Molecule | Activation of human MRGPRX2 (increase in intracellular Ca2+) (human MRGPRX2) | EC50 (human MRGPRX2) [µM] | Activation of dog MRGPRX2 (increase in intracellular Ca2+) (dog MRGPRX2) | EC50 (dog MRGPRX2; dog MRGPRX2-expressing HEK293 cells, read-out: EC50 on changes in intracellular Ca2+ levels, Dog MRGPRX2 (converted)) [µM] | Nonspecific increase in intracellular Ca2+ levels in non-transfected cells [1] | Difference in EC50 values between dog MRGPRX2 and human MRGPRX2 (dog MRGPRX2) | EC50 (dog MRGPRX2; [4]) | EC50 in mouse Mrgprb2-expressing cells compared to human MRGPRX2-expressing cells (mouse Mrgprb2; higher in mouse) [fold] | EC50 (mouse Mrgprb2; read-out: EC50 in mouse Mrgprb2-expressing cells) [µM] | Concentration inducing histamine release from dispersed canine skin mast cells [2] [µg/mL] | Histamine release in dogs [3] |
| --- | --- | --- | --- | --- | --- | --- | --- | --- | --- | --- | --- |
| COc1c(N2CCNC(C)C2)c(F)cc2c(=O)c(C(=O)O)cn(C3CC3)c12 (centres unmarked) [GFLX, gatifloxacin] | concentration-dependent | 529 | responded | 210 |  |  |  |  |  |  |  |
| O=C(O)c1cn(C2CC2)c2cc(N3CCNCC3)c(F)cc2c1=O [CPFX, ciprofloxacin] | concentration-dependent |  | responded |  | induced nonspecific increase | ca. sevenfold | ~45.3 µM and 43.8 µM |  |  |  |  |
| substance P |  |  |  |  |  |  |  | 360 | 54 |  |  |
| C[C@H]1COc2c(N3CCN(C)CC3)c(F)cc3c(=O)c(C(=O)O)cn1c23 [LVFX, levofloxacin] | concentration-dependent | 1060 | responded |  |  | ca. sevenfold | ~166 µM and 163 µM |  |  | ≥ 30 |  |
| C[C@H]1COc2c(C3(N)CC3)c(F)cc3c(=O)c(C(=O)O)cn1c23 [PZFX, pazufloxacin] | did not activate |  | did not activate |  |  |  |  |  |  |  | does not induce histamine release; also recorded: does not cause histamine release |
